26 compounds from patent US7704995B2 (Exelixis, Inc., priority 2003, dated 2010) can be followed below.

This assay deals with T1, Chk1 (Homo sapiens, UniProt O14757).
T1 construct: purchased Upstate Biotechnology
T1 sequence (O14757 1-476): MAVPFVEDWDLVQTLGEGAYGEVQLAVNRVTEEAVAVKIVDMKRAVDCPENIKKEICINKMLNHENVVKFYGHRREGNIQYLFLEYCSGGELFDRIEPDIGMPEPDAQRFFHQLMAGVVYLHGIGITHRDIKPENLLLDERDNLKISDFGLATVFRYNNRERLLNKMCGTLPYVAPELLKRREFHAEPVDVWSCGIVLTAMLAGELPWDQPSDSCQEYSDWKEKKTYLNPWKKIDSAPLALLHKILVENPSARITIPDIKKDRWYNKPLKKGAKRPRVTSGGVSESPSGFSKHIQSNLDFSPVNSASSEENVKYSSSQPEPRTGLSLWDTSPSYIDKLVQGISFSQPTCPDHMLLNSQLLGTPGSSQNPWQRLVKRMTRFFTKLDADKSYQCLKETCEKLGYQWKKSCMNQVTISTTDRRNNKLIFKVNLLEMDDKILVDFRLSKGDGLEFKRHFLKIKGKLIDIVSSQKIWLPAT
The assay can be described thus: Chk1 kinase assay: incorporation of γ-33P ATP into immobilized myelin basic protein. It is filed as biochemical. The settings on record: Table 11; Chk1 only; read-out: Chk1 IC50. In short, it runs like this:
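Plates coated with MBP, then kinase reactions in Hepes pH 7.6 buffer with 10 mM MgCl2 and 1% DMSO were started by adding unlabeled plus γ-33P ATP (10 μM for Chk1 at 10 nM enzyme; 30 μM for Chk2 at 20 nM enzyme). After 1 h at room temperature, plates were washed and counted.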
Consider `CNC(=O)c1nc(-c2cccc(CNC3CCc4cc(O)ccc43)c2)cnc1N` (centres unmarked) [Example 513, 3-amino-6-(3-{[(5-hydroxy-2,3-dihydro-1H-inden-1-yl)amino]methyl}phenyl)-N-methylpyrazine-2-carboxamide], for which the IC50 was in the range of 50 to 1000 nM.

As for `CNC(=O)c1nc(-c2cccc(CNC3CCc4c(OCCN5CCOCC5)cccc43)c2)cnc1N` (centres unmarked) [Example 514, 3-amino-N-methyl-6-{3-[({4-[(2-morpholin-4-ylethyl)oxy]-2,3-dihydro-1H-inden-1-yl}amino)methyl]phenyl}pyrazine-2-carboxamide], the IC50 lay within 50 to 1000 nM.

Regarding `CNC(=O)c1nc(-c2cccc(CNC3CCc4c(O)cccc43)c2)cnc1N` (centres unmarked) [Example 515, 3-amino-6-(3-{[(4-hydroxy-2,3-dihydro-1H-inden-1-yl)amino]methyl}phenyl)-N-methylpyrazine-2-carboxamide], the IC50 was under 50 nM.

As to `CNC(=O)c1nc(-c2ccc3ccnc(NCc4ccccc4)c3c2)cnc1N` [Example 516, 3-amino-N-methyl-6-{1-[(phenylmethyl)amino]isoquinolin-7-yl}pyrazine-2-carboxamide], the IC50 was in the range of 1000 to 10000 nM.

Consider `CNC(=O)c1nc(-c2cccc(CNC(CN3CCOCC3)c3ccccc3)c2)cnc1N` (centres unmarked) [Example 517, 3-amino-N-methyl-6-(3-{[(2-morpholin-4-yl-1-phenylethyl)amino]methyl}phenyl)pyrazine-2-carboxamide], for which the IC50 lay in the range of 1000 to 10000 nM.

Regarding `CNC(=O)c1nc(-c2cccc(CNC(CN3CCCC3)c3ccccc3)c2)cnc1N` (centres unmarked) [Example 518, 3-amino-N-methyl-6-(3-{[(1-phenyl-2-pyrrolidin-1-ylethyl)amino]methyl}phenyl)pyrazine-2-carboxamide], the IC50 was in the range of 50 to 1000 nM.

`CNC(=O)c1cc(-c2cccc(CNC3CCc4ccc(Br)cc43)c2)cnc1N` (centres unmarked) [Example 519, 2-amino-5-(3-{[(6-bromo-2,3-dihydro-1H-inden-1-yl)amino]methyl}phenyl)-N-methylpyridine-3-carboxamide]: the IC50 lay in the range of 50 to 1000 nM.

Consider `CNC(=O)c1cc(-c2cccc(CNC3CCc4c(F)cc(F)cc43)c2)cnc1N` (centres unmarked) [Example 520, 2-amino-5-(3-{[(4,6-difluoro-2,3-dihydro-1H-inden-1-yl)amino]methyl}phenyl)-N-methylpyridine-3-carboxamide], for which the IC50 was 50 to 1000 nM.

On to `CNC(=O)c1cc(-c2cccc(CNC3CCc4c(F)ccc(Br)c43)c2)cnc1N` (centres unmarked) [Example 521, 2-amino-5-(3-{[(7-bromo-4-fluoro-2,3-dihydro-1H-inden-1-yl)amino]methyl}phenyl)-N-methylpyridine-3-carboxamide], for which the IC50 was in the range of 1000 to 10000 nM.

Consider `CNC(=O)c1cc(-c2cccc(CNC3CCc4c(Cl)cccc43)c2)cnc1N` (centres unmarked) [Example 522, 2-amino-5-(3-{[(4-chloro-2,3-dihydro-1H-inden-1-yl)amino]methyl}phenyl)-N-methylpyridine-3-carboxamide], for which the IC50 fell in the range of 50 to 1000 nM.

Consider `CNC(=O)c1cc(-c2cccc(CNC3CCc4cc(F)c(F)cc43)c2)cnc1N` (centres unmarked) [Example 523, 2-amino-5-(3-{[(5,6-difluoro-2,3-dihydro-1H-inden-1-yl)amino]methyl}phenyl)-N-methylpyridine-3-carboxamide], for which the IC50 fell in the range of 50 to 1000 nM.

Take `CNC(=O)c1cc(-c2cccc(CNC3CCc4cc(F)cc(F)c43)c2)cnc1N` (centres unmarked) [Example 524, 2-amino-5-(3-{[(5,7-difluoro-2,3-dihydro-1H-inden-1-yl)amino]methyl}phenyl)-N-methylpyridine-3-carboxamide]: the IC50 lay within 50 to 1000 nM.

In the case of `CNC(=O)c1nc(-c2ccc3ccnc(N[C@H]4CCc5ccccc54)c3c2)cnc1N` [Example 525, 3-amino-6-{1-[(1S)-2,3-dihydro-1H-inden-1-ylamino]isoquinolin-7-yl}-N-methylpyrazine-2-carboxamide], the IC50 was 50 to 1000 nM.

In the case of `CNC(=O)c1nc(-c2ccc3c(c2)C(N[C@H]2CCc4ccccc42)CC3)cnc1N` (stereo partly drawn) [Example 526, 3-amino-6-{3-[(1S)-2,3-dihydro-1H-inden-1-ylamino]-2,3-dihydro-1H-inden-5-yl}-N-methylpyrazine-2-carboxamide], the IC50 was under 50 nM.

In the case of `CNC(=O)c1nc(-c2cccc(CNC3CCc4cc(CCCO)ccc43)c2)cnc1N` (centres unmarked) [Example 527], the IC50 was under 50 nM.

On to `Nc1ncc(-c2cccc(CN[C@H]3CCc4ccccc43)c2)nc1-c1cnco1` [Example 528, 5-(3-{[(1S)-2,3-dihydro-1H-inden-1-ylamino]methyl}phenyl)-3-(1,3-oxazol-5-yl)pyrazin-2-amine], for which the IC50 was in the range of 1000 to 10000 nM.

On to `NNC(=O)c1nc(-c2cccc(CN[C@H]3CCc4ccccc43)c2)cnc1N` [Example 529, 3-amino-6-(3-{[(1S)-2,3-dihydro-1H-inden-1-ylamino]methyl}phenyl)pyrazine-2-carbohydrazide], for which the IC50 was 50 to 1000 nM.

Consider `NC(=O)c1nc(-c2cccc(CN[C@H]3CCc4ccccc43)c2)cnc1N` [Example 530, 3-amino-6-(3-{[(1S)-2,3-dihydro-1H-inden-1-ylamino]methyl}phenyl)pyrazine-2-carboxamide], for which the IC50 fell in the range of 50 to 1000 nM.

For `CC(=O)c1nc(-c2cccc(CN[C@H]3CCc4ccccc43)c2)cnc1N` [Example 531, 1-[3-amino-6-(3-{[(1S)-2,3-dihydro-1H-inden-1-ylamino]methyl}phenyl)pyrazin-2-yl]ethanone], the IC50 is 50 to 1000 nM.

As to `Nc1ncc(-c2cccc(CNC3CCc4ccccc43)c2)nc1C(=O)NCc1ccc2ccccc2c1` (centres unmarked) [Example 532, 3-amino-6-{3-[(2,3-dihydro-1H-inden-1-ylamino)methyl]phenyl}-N-(naphthalen-2-ylmethyl)pyrazine-2-carboxamide], the IC50 is at least 10000 nM.

Regarding `Nc1ncc(-c2cccc(CNC3CCc4ccccc43)c2)nc1C(=O)NC1CCCCC1` (centres unmarked) [Example 533, 3-amino-N-cyclohexyl-6-{3-[(2,3-dihydro-1H-inden-1-ylamino)methyl]phenyl}pyrazine-2-carboxamide], the IC50 was in the range of 1000 to 10000 nM.

With `Nc1ncc(-c2cccc(CN[C@H]3CCc4ccccc43)c2)nc1C(=O)NCc1ccncc1` [Example 534, 3-amino-6-(3-{[(1S)-2,3-dihydro-1H-inden-1-ylamino]methyl}phenyl)-N-(pyridin-4-ylmethyl)pyrazine-2-carboxamide], the IC50 was 1000 to 10000 nM.

Regarding `Nc1ncc(-c2cccc(CO)c2)nc1-c1nnc[nH]1` [Example 535, {3-[5-amino-6-(4H-1,2,4-triazol-3-yl)pyrazin-2-yl]phenyl}methanol], the IC50 fell in the range of 1000 to 10000 nM.

Take `Nc1ncc(-c2cccc(CN[C@H]3CCc4ccccc43)c2)nc1-c1nnc[nH]1` [Example 536, 5-(3-{[(1S)-2,3-dihydro-1H-inden-1-ylamino]methyl}phenyl)-3-(4H-1,2,4-triazol-3-yl)pyrazin-2-amine]: the IC50 fell in the range of 50 to 1000 nM.

Take `Nc1ncc(-c2cccc(CN[C@H]3CCc4ccccc43)c2)nc1C(=O)NCC(F)(F)F` [Example 537, 3-amino-6-(3-{[(1S)-2,3-dihydro-1H-inden-1-ylamino]methyl}phenyl)-N-(2,2,2-trifluoroethyl)pyrazine-2-carboxamide]: the IC50 lay within 1000 to 10000 nM.

As to `Nc1ncc(-c2cccc(CN[C@H]3CCc4ccccc43)c2)nc1C(=O)NCCCCCO` [Example 538, 3-amino-6-(3-{[(1S)-2,3-dihydro-1H-inden-1-ylamino]methyl}phenyl)-N-(5-hydroxypentyl)pyrazine-2-carboxamide], the IC50 is 1000 to 10000 nM.
